Results on 21 molecules are retold here after ChEMBL document CHEMBL3044825, “Synthesis and in vitro microbial activities of amides of pyridoquinolone” (2011).

What all share (type): functional
Holding throughout (details): read-out: IZ

The test system of one test is Staphylococcus aureus. Put plainly: Antibacterial activity against Staphylococcus aureus at 100 ug/ml by cup-plate method.
In the next test the test system is Escherichia coli. The test can be described thus: Antibacterial activity against Escherichia coli at 100 ug/ml by cup-plate method.
A further test has as its system Candida albicans. Put plainly: Antifungal activity against Candida albicans at 100 ug/ml by cup-plate method.
In another test the test system is Pseudomonas aeruginosa. The test can be described thus: Antibacterial activity against Pseudomonas aeruginosa at 100 ug/ml by cup-plate method.
In a further test the test system is Bacillus subtilis. The test can be described thus: Antibacterial activity against Bacillus subtilis at 100 ug/ml by cup plate method.

With `Cc1ccc(NC(=S)NC(=O)c2cn(CCO)c3c(cc(O)c4ncccc43)c2=O)cc1`, the zone of inhibition at 100 µg/mL with Staphylococcus aureus is 0 mm; in the test with Escherichia coli, 6 mm; in the test on Candida albicans it was 1 mm; in the test on Pseudomonas aeruginosa it was 4 mm; in the test with Bacillus subtilis, 6 mm.
For `Cc1ccc(C)c(NS(=O)(=O)c2ccc(NC(=O)c3cn(CCO)c4c(cc(Cl)c5ncccc54)c3=O)cc2)c1`, the zone of inhibition at 100 µg/mL amounted to 10 mm in the test with Staphylococcus aureus; 10 mm in the test with Escherichia coli; 4 mm in the test with Candida albicans; 10 mm in the test with Pseudomonas aeruginosa; 9 mm with Bacillus subtilis.
As to `O=C(NC(=S)Nc1cccc(Cl)c1)c1cn(CCO)c2c(cc(Cl)c3ncccc32)c1=O`, the zone of inhibition at 100 µg/mL came to 8 mm in the test with Staphylococcus aureus; 9 mm in the test with Escherichia coli; 3 mm in the test with Candida albicans; 9 mm with Pseudomonas aeruginosa; 10 mm in the test with Bacillus subtilis.
For the molecule `Cc1cccc(NC(=S)NC(=O)c2cn(CCO)c3c(cc(Cl)c4ncccc43)c2=O)c1`, the zone of inhibition at 100 µg/mL turned out to be 10 mm in the test with Staphylococcus aureus; 11 mm in the test with Escherichia coli; 4 mm in the test on Candida albicans; 10 mm in the test on Pseudomonas aeruginosa; 9 mm with Bacillus subtilis.
Consider `COc1ccccc1NC(=O)c1cn(CCO)c2c(cc(Cl)c3ncccc32)c1=O`, for which the zone of inhibition at 100 µg/mL worked out at 9 mm with Staphylococcus aureus; 8 mm in the test with Escherichia coli; 3 mm in the test with Candida albicans; 8 mm in the test on Pseudomonas aeruginosa; 10 mm in the test with Bacillus subtilis.
Take `O=C(Nc1ccc(S(=O)(=O)Nc2ccc(Cl)cc2)cc1)c1cn(CCO)c2c(cc(Cl)c3ncccc32)c1=O`: the zone of inhibition at 100 µg/mL was 6 mm in the test on Staphylococcus aureus; 8 mm in the test with Escherichia coli; 1 mm in the test on Candida albicans; 0 mm in the test on Pseudomonas aeruginosa; 7 mm in the test with Bacillus subtilis.
Consider `Cc1cccc(NS(=O)(=O)c2ccc(NC(=O)c3cn(CCO)c4c(cc(O)c5ncccc54)c3=O)cc2)c1`, for which the zone of inhibition at 100 µg/mL in the test on Staphylococcus aureus was found to be 11 mm; with Escherichia coli, 10 mm; in the test with Candida albicans, 5 mm; in the test with Pseudomonas aeruginosa it was 11 mm; with Bacillus subtilis it was 12 mm.
Take `N#Cc1cc([N+](=O)[O-])ccc1NS(=O)(=O)c1ccc(NC(=O)c2cn(CCO)c3c(cc(Cl)c4ncccc43)c2=O)cc1`: the zone of inhibition at 100 µg/mL with Staphylococcus aureus amounted to 8 mm; in the test with Escherichia coli, 8 mm; in the test with Candida albicans, 2 mm; in the test on Pseudomonas aeruginosa it was 8 mm; in the test on Bacillus subtilis, 9 mm.
For `O=C(Nc1ccc(S(=O)(=O)Nc2ccccc2)cc1)c1cn(CCO)c2c(cc(Cl)c3ncccc32)c1=O`, the zone of inhibition at 100 µg/mL in the test with Staphylococcus aureus amounted to 8 mm; in the test on Escherichia coli, 6 mm; with Candida albicans, 2 mm; with Pseudomonas aeruginosa, 7 mm; in the test on Bacillus subtilis it was 10 mm.
In the same order, the values of `N#Cc1cc([N+](=O)[O-])ccc1NS(=O)(=O)c1ccc(NC(=O)c2cn(CCO)c3c(cc(O)c4ncccc43)c2=O)cc1` are 8 mm, 6 mm, 2 mm, 8 mm and 6 mm.
Turning to `O=C(Nc1cccc(Cl)c1)c1cn(CCO)c2c(cc(O)c3ncccc32)c1=O`, the zone of inhibition at 100 µg/mL in the test on Staphylococcus aureus came to 0 mm; in the test with Escherichia coli it was 4 mm; in the test on Candida albicans, 0 mm; with Pseudomonas aeruginosa it was 4 mm; in the test on Bacillus subtilis it was 6 mm.
Turning to `Cc1ccc(NS(=O)(=O)c2ccc(NC(=O)c3cn(CCO)c4c(cc(Cl)c5ncccc54)c3=O)cc2)cc1`, the zone of inhibition at 100 µg/mL in the test with Staphylococcus aureus is 5 mm; in the test on Escherichia coli, 5 mm; with Candida albicans it was 1 mm; in the test on Pseudomonas aeruginosa, 7 mm; with Bacillus subtilis, 6 mm.
`O=C(Nc1ccc(S(=O)(=O)Nc2ccc(Cl)cc2)cc1)c1cn(CCO)c2c(cc(O)c3ncccc32)c1=O`: the zone of inhibition at 100 µg/mL with Staphylococcus aureus is 0 mm; in the test with Escherichia coli it was 4 mm; in the test on Candida albicans, 0 mm; in the test on Pseudomonas aeruginosa, 4 mm; in the test on Bacillus subtilis, 6 mm.
On to `COc1ccc(NC(=O)c2cn(CCO)c3c(cc(O)c4ncccc43)c2=O)cc1`, for which the zone of inhibition at 100 µg/mL in the test with Staphylococcus aureus is 10 mm; in the test on Escherichia coli, 11 mm; in the test on Candida albicans, 5 mm; with Pseudomonas aeruginosa it was 10 mm; in the test with Bacillus subtilis, 12 mm.
As to `O=C(Nc1cccc([N+](=O)[O-])c1)c1cn(CCO)c2c(cc(Cl)c3ncccc32)c1=O`, the zone of inhibition at 100 µg/mL in the test on Staphylococcus aureus amounted to 9 mm; in the test on Escherichia coli it was 9 mm; with Candida albicans, 3 mm; in the test on Pseudomonas aeruginosa, 9 mm; with Bacillus subtilis, 6 mm.
For the molecule `O=C(NC(=S)Nc1cccc(Cl)c1)c1cn(CCO)c2c(cc(O)c3ncccc32)c1=O`, the zone of inhibition at 100 µg/mL came out at 9 mm in the test on Staphylococcus aureus; 10 mm with Escherichia coli; 3 mm in the test with Candida albicans; 9 mm in the test with Pseudomonas aeruginosa; 10 mm in the test on Bacillus subtilis.
For the molecule `COc1ccc(NC(=S)NC(=O)c2cn(CCO)c3c(cc(Cl)c4ncccc43)c2=O)cc1`, the zone of inhibition at 100 µg/mL turned out to be 8 mm with Staphylococcus aureus; 8 mm with Escherichia coli; 2 mm with Candida albicans; 6 mm in the test with Pseudomonas aeruginosa; 9 mm in the test on Bacillus subtilis.
Regarding `COc1ccc(NS(=O)(=O)c2ccc(NC(=O)c3cn(CCO)c4c(cc(O)c5ncccc54)c3=O)cc2)cc1`, the zone of inhibition at 100 µg/mL with Staphylococcus aureus is 10 mm; in the test on Escherichia coli, 8 mm; in the test on Candida albicans, 4 mm; in the test on Pseudomonas aeruginosa it was 8 mm; in the test with Bacillus subtilis, 11 mm.
`O=C(NC(=S)Nc1ccc(O)cc1)c1cn(CCO)c2c(cc(O)c3ncccc32)c1=O`: the zone of inhibition at 100 µg/mL in the test with Staphylococcus aureus turned out to be 6 mm; in the test on Escherichia coli, 6 mm; with Candida albicans it was 0 mm; in the test with Pseudomonas aeruginosa, 6 mm; in the test with Bacillus subtilis it was 7 mm.
Consider `Cc1cccc(NS(=O)(=O)c2ccc(NC(=O)c3cn(CCO)c4c(cc(Cl)c5ncccc54)c3=O)cc2)c1`, for which the zone of inhibition at 100 µg/mL with Staphylococcus aureus stood at 0 mm; with Escherichia coli, 0 mm; in the test on Candida albicans it was 0 mm; in the test on Pseudomonas aeruginosa, 4 mm; in the test on Bacillus subtilis, 6 mm.
As for `O=C(NC(=S)Nc1ccc([N+](=O)[O-])cc1)c1cn(CCO)c2c(cc(O)c3ncccc32)c1=O`, the zone of inhibition at 100 µg/mL came to 10 mm in the test with Staphylococcus aureus; 12 mm in the test with Escherichia coli; 4 mm in the test on Candida albicans; 10 mm with Pseudomonas aeruginosa; 9 mm in the test with Bacillus subtilis.
